Data from patent US20220061324A1, “PESTICIDALLY ACTIVE HETEROCYCLIC DERIVATIVES WITH SULFUR CONTAINING SUBSTITUENTS” (SYNGENTA CROP PROTECTION AG, priority 2018, published 2022).
Read-outs that look alike come from different tables or passages of the source.

Experiments:
Assay type in all cases: in vivo
[1] = tested on: Diabrotica balteata (Corn Root Worm); test: Activity against Diabrotica balteata (corn root worm), maize sprouts sprayed; conditions: 96 h, read-out: effect in at least one of the two categories (mortality or growth inhibition); for percent effect (mortality or growth inhibition) at 200 ppm: application rate 200 ppm, L2 larvae, 4 days after infestation
Protocol: Example B1: Activity Against Diabrotica balteata (Corn Root Worm)
Maize sprouts placed onto an agar layer in 24-well microtiter plates were treated with aqueous test solutions prepared from 10,000 ppm DMSO stock solutions by spraying. After drying, the plates were infested with L2 larvae (6 to 10 per well). The samples were assessed for mortality and growth inhibition in comparison to untreated samples 4 days after infestation.

[2] = tested on: Euschistus heros (Neotropical Brown Stink Bug); test: Activity against Euschistus heros (neotropical brown stink bug), soybean leaves sprayed; conditions: 120 h, read-out: effect in at least one of the two categories (mortality or growth inhibition); for percent effect (mortality or growth inhibition) at 200 ppm: application rate 200 ppm, N2 nymphs, 5 days after infestation
Protocol: Example B2: Activity Against Euschistus heros (Neotropical Brown Stink Bug)
Soybean leaves on agar in 24-well microtiter plates were sprayed with aqueous test solutions prepared from 10,000 ppm DMSO stock solutions. After drying the leaves were infested with N2 nymphs. The samples were assessed for mortality and growth inhibition in comparison to untreated samples 5 days after infestation.

[3] = tested on: Plutella xylostella (Diamond Back Moth); test: Activity against Plutella xylostella (diamond back moth), artificial diet; conditions: 192 h, read-out: effect in at least one of the two categories (mortality or growth inhibition); for percent effect (mortality or growth inhibition) at 200 ppm: application rate 200 ppm, eggs, 8 days after infestation
Protocol: Example B3: Activity Against Plutella xylostella (Diamond Back Moth)
24-well microtiter plates with artificial diet were treated with aqueous test solutions prepared from 10,000 ppm DMSO stock solutions by pipetting. After drying, Plutella eggs were pipetted through a plastic stencil onto a gel blotting paper and the plate was closed with it. The samples were assessed for mortality and growth inhibition in comparison to untreated samples 8 days after infestation.

[4] = tested on: Myzus persicae (Green Peach Aphid); test: Activity against Myzus persicae (green peach aphid), feeding/contact activity; conditions: 144 h
Protocol: Example B4: Activity Against Myzus persicae (Green Peach Aphid) Feeding/Contact Activity
Sunflower leaf discs were placed onto agar in a 24-well microtiter plate and sprayed with aqueous test solutions prepared from 10,000 ppm DMSO stock solutions. After drying, the leaf discs were infested with an aphid population of mixed ages. The samples were assessed for mortality 6 days after infestation.

[5] = tested on: Spodoptera littoralis (Egyptian Cotton Leaf Worm); test: Activity against Spodoptera littoralis (Egyptian cotton leaf worm), cotton leaf discs; conditions: foliar, 72 h, read-out: control (mortality, anti-feedant effect or growth inhibition)
Protocol: Example B5: Activity Against Spodoptera littoralis (Egyptian Cotton Leaf Worm)
Cotton leaf discs were placed onto agar in 24-well microtiter plates and sprayed with aqueous test solutions prepared from 10,000 ppm DMSO stock solutions. After drying the leaf discs were infested with five L1 larvae. The samples were assessed for mortality, anti-feeding effect, and growth inhibition in comparison to untreated samples 3 days after infestation. Control of Spodoptera littoralis by a test sample is given when at least one of the categories mortality, anti-feedant effect, and growth inhibition is higher than the untreated sample.

[6] = application rate 200 ppm, feeding/contact, mixed ages, 6 days after infestation, read-out: mortality
[7] = application rate 200 ppm, L1 larvae, 3 days after infestation

CCS(=O)(=O)c1cccnc1-c1ncc2c(OCC(F)(F)C(F)(F)F)nccn12 [Compound P8, 3-(3-ethylsulfonyl-2-pyridyl)-8-(2,2,3,3,3-pentafluoropropoxy)imi-dazo[1,5-a]pyrazine]
≥ 80%: percent control (mortality or growth inhibition) at 200 ppm [1] | percent control (mortality or growth inhibition) at 200 ppm [2] | percent control (mortality or growth inhibition) at 200 ppm [3] | mortality at 200 ppm [4] | percent control (mortality, anti-feedant effect or growth inhibition) at 200 ppm [5]

CCS(=O)(=O)c1ccc(NC)nc1-c1ncc2c(OCC(F)(F)C(F)(F)F)nccn12 [Compound P10, 5-ethylsulfonyl-N-methyl-6-[8-(2,2,3,3,3-penta-fluoropropoxy)imidazo [1,5-a]pyrazin-3-yl]pyri-din-2-amine]
≥ 80%: percent effect (mortality or growth inhibition) at 200 ppm [1] | percent effect (mortality or growth inhibition) at 200 ppm [2] | percent effect (mortality or growth inhibition) at 200 ppm [3] | mortality at 200 ppm [4, 6] | percent control (mortality, anti-feedant effect or growth inhibition) at 200 ppm [5, 7]

CCS(=O)(=O)c1cc(C2(C#N)CC2)cnc1-c1ncc2c(OCC(F)(F)C(F)(F)F)cccn12 [Compound P35, 1-[5-ethylsulfonyl-6-[8-(2,2,3,3,3-penta-fluoropropoxy)imidazo [1,5-a]pyridin-3-yl]-3-pyridyl]cyclopropane-carbonitrile]
≥ 80%: percent effect (mortality or growth inhibition) at 200 ppm [1] | percent effect (mortality or growth inhibition) at 200 ppm [2] | percent effect (mortality or growth inhibition) at 200 ppm [3] | percent control (mortality, anti-feedant effect or growth inhibition) at 200 ppm [5, 7]

CCS(=O)(=O)c1cc(Oc2ccccn2)cnc1-c1ncc2c(OCC(F)(F)C(F)(F)F)cccn12 [Compound P36, 3-[3-ethylsulfonyl-5-(2-pyridyloxy)-2-pyridyl]-8-(2,2,3,3,3-penta-fluoropropoxy)imidazo [1,5-a]pyridine]
≥ 80%: percent effect (mortality or growth inhibition) at 200 ppm [1] | percent effect (mortality or growth inhibition) at 200 ppm [2] | percent effect (mortality or growth inhibition) at 200 ppm [3] | mortality at 200 ppm [4, 6]

CCS(=O)(=O)c1cc(N(C)C(C)=O)cnc1-c1ncc2c(OCC(F)(F)C(F)(F)F)cccn12 [Compound P39, N-[5-ethylsulfonyl-6-[8-(2,2,3,3,3-penta-fluoropropoxy)imidazo [1,5-a]pyridin-3-yl]-3-pyridyl]-N-methyl-acetamide]
≥ 80%: percent effect (mortality or growth inhibition) at 200 ppm [2] | percent effect (mortality or growth inhibition) at 200 ppm [3] | mortality at 200 ppm [4, 6]

CCS(=O)(=O)c1cc(N=S(C)(C)=O)cnc1-c1ncc2c(OCC(F)(F)C(F)(F)F)cccn12 [Compound P45, [5-ethylsulfonyl-6-[8-(2,2,3,3,3-penta-fluoropropoxy)imidazo [1,5-a]pyridin-3-yl]-3-pyridyl]imino-dimethyl-oxo-λ^6-sulfane]
≥ 80%: percent effect (mortality or growth inhibition) at 200 ppm [2] | percent effect (mortality or growth inhibition) at 200 ppm [3] | mortality at 200 ppm [4, 6]

CCS(=O)(=O)c1cc(OC(C)(C)C#N)cnc1-c1ncc2c(OCC(F)(F)C(F)(F)F)cccn12 [Compound P47, 2-[[5-ethylsulfonyl-6-[8-(2,2,3,3,3-penta-fluoropropoxy)imidazo [1,5-a]pyridin-3-yl]-3-pyridyl]oxy]-2-methyl-propanenitrile]
≥ 80%: percent effect (mortality or growth inhibition) at 200 ppm [1] | percent effect (mortality or growth inhibition) at 200 ppm [2] | percent effect (mortality or growth inhibition) at 200 ppm [3] | mortality at 200 ppm [4, 6]

CCSc1cc(OC(C)(C)C#N)cnc1-c1ncc2c(OCC(F)(F)C(F)(F)F)nccn12 [Compound P50, 2-[[5-ethylsulfanyl-6-[8-(2,2,3,3,3-penta-fluoropropoxy)imidazo [1,5-a]pyrazin-3-yl]-3-pyridyl]oxy]-2-methyl-propanenitrile]
≥ 80%: percent effect (mortality or growth inhibition) at 200 ppm [1] | percent effect (mortality or growth inhibition) at 200 ppm [2] | percent effect (mortality or growth inhibition) at 200 ppm [3] | percent control (mortality, anti-feedant effect or growth inhibition) at 200 ppm [5, 7]
